The CheMixHub viscosity set
± gives the uncertainty stated by the source.

Test: xn = mol fraction of the nth substance listed

CCCCCCCCCC(=O)OC + CCCCO
viscosity [mPa·s], 100 kPa
Details | 293.15 K | 298.15 K | 303.15 K | 308.15 K | 313.15 K | 318.15 K | 323.15 K
x1 = 0.09981 | 2.423 ± 0.052 | 2.148 ± 0.046 | 1.914 ± 0.041 | 1.709 ± 0.036 | 1.538 ± 0.033 | 1.386 ± 0.029 | 1.254 ± 0.027
x1 = 0.1 | – | 2.153 ± 0.13 | 1.921 ± 0.12 | 1.715 ± 0.1 | 1.537 ± 0.093 | 1.384 ± 0.084 | –
x1 = 0.2 | – | 1.948 ± 0.12 | 1.745 ± 0.11 | 1.569 ± 0.095 | 1.419 ± 0.086 | – | –
x1 = 0.2003 | 2.159 ± 0.046 | 1.939 ± 0.041 | 1.74 ± 0.037 | 1.566 ± 0.033 | 1.418 ± 0.03 | 1.287 ± 0.027 | 1.173 ± 0.025
x1 = 0.3 | – | 1.841 ± 0.11 | 1.656 ± 0.1 | 1.504 ± 0.091 | 1.359 ± 0.082 | – | –
x1 = 0.3001 | 2.041 ± 0.043 | 1.827 ± 0.039 | 1.646 ± 0.035 | 1.489 ± 0.032 | 1.353 ± 0.029 | 1.235 ± 0.026 | 1.13 ± 0.024
x1 = 0.3993 | 1.973 ± 0.042 | 1.773 ± 0.038 | 1.602 ± 0.034 | 1.454 ± 0.031 | 1.326 ± 0.028 | 1.214 ± 0.026 | 1.116 ± 0.024
x1 = 0.4 | – | 1.794 ± 0.11 | 1.616 ± 0.098 | 1.464 ± 0.088 | 1.333 ± 0.08 | – | –
x1 = 0.5 | – | 1.765 ± 0.11 | 1.597 ± 0.096 | 1.452 ± 0.088 | 1.332 ± 0.08 | – | –
x1 = 0.501 | 1.95 ± 0.042 | 1.755 ± 0.037 | 1.59 ± 0.034 | 1.446 ± 0.031 | 1.322 ± 0.028 | 1.213 ± 0.026 | 1.117 ± 0.024
x1 = 0.6001 | – | 1.77 ± 0.11 | 1.6 ± 0.097 | 1.458 ± 0.088 | 1.331 ± 0.08 | – | –
x1 = 0.6002 | 1.944 ± 0.042 | 1.751 ± 0.037 | 1.589 ± 0.034 | 1.448 ± 0.031 | 1.325 ± 0.028 | 1.218 ± 0.026 | 1.124 ± 0.024
x1 = 0.6999 | – | 1.779 ± 0.11 | 1.613 ± 0.097 | 1.471 ± 0.089 | 1.347 ± 0.081 | – | –
x1 = 0.7028 | 1.958 ± 0.042 | 1.767 ± 0.038 | 1.603 ± 0.034 | 1.463 ± 0.031 | 1.341 ± 0.029 | 1.234 ± 0.026 | 1.14 ± 0.024
x1 = 0.7953 | 1.986 ± 0.043 | 1.793 ± 0.038 | 1.629 ± 0.035 | 1.487 ± 0.032 | 1.364 ± 0.029 | 1.257 ± 0.027 | 1.163 ± 0.025
x1 = 0.7987 | – | 1.808 ± 0.11 | 1.646 ± 0.099 | 1.497 ± 0.09 | 1.372 ± 0.083 | – | –
x1 = 0.8967 | – | 1.846 ± 0.11 | 1.678 ± 0.1 | 1.532 ± 0.093 | 1.407 ± 0.085 | – | –
x1 = 0.8999 | 2.03 ± 0.044 | 1.835 ± 0.039 | 1.668 ± 0.036 | 1.524 ± 0.033 | 1.399 ± 0.03 | 1.29 ± 0.028 | 1.194 ± 0.026

O=[N+]([O-])[O-].[Na+] + O
viscosity [mPa·s]
Details | 293.15 K | 298.15 K | 303.15 K | 308.15 K | 313.15 K | 318.15 K
101 kPa, x1 = 0.0371 | – | – | – | – | 0.78 ± 0.02 | –
101 kPa, x1 = 0.0564 | – | 1.19 ± 0.03 | – | – | 0.89 ± 0.02 | –
101 kPa, x1 = 0.0768 | – | 1.3 ± 0.1 | – | – | 1.02 ± 0.02 | –
101 kPa, x1 = 0.0978 | – | 1.63 ± 0.04 | – | – | 1.2 ± 0.1 | –
101 kPa, x1 = 0.12 | – | 1.92 ± 0.04 | – | – | 1.41 ± 0.03 | –
101.1 kPa, x1 = 0.0001893 | 1.003 ± 0.021 | 0.892 ± 0.019 | 0.799 ± 0.017 | 0.721 ± 0.015 | 0.654 ± 0.014 | 0.598 ± 0.013
101.1 kPa, x1 = 0.0007456 | 1.004 ± 0.021 | 0.893 ± 0.019 | 0.8 ± 0.017 | 0.722 ± 0.015 | 0.655 ± 0.014 | 0.6 ± 0.013
101.1 kPa, x1 = 0.0018 | 1.007 ± 0.022 | 0.895 ± 0.019 | 0.803 ± 0.017 | 0.725 ± 0.015 | 0.658 ± 0.014 | 0.602 ± 0.013
101.1 kPa, x1 = 0.007199 | 1.02 ± 0.022 | 0.909 ± 0.019 | 0.817 ± 0.017 | 0.738 ± 0.016 | 0.662 ± 0.014 | 0.608 ± 0.013
101.1 kPa, x1 = 0.01603 | 1.032 ± 0.022 | 0.923 ± 0.02 | 0.83 ± 0.018 | 0.75 ± 0.016 | 0.676 ± 0.014 | 0.618 ± 0.013
101.1 kPa, x1 = 0.0211 | 1.052 ± 0.023 | 0.934 ± 0.02 | 0.836 ± 0.018 | 0.754 ± 0.016 | 0.682 ± 0.015 | 0.623 ± 0.013
101.3 kPa, x1 = 0.0009 | 1.005 ± 0.022 | 0.8932 ± 0.019 | 0.8005 ± 0.017 | 0.7222 ± 0.015 | – | 0.5989 ± 0.013
101.3 kPa, x1 = 0.0018 | 1.007 ± 0.022 | 0.8955 ± 0.019 | 0.8028 ± 0.017 | 0.7247 ± 0.015 | – | 0.6018 ± 0.013
101.3 kPa, x1 = 0.00893 | 1.025 ± 0.022 | 0.915 ± 0.019 | 0.8225 ± 0.017 | 0.7446 ± 0.016 | – | 0.6207 ± 0.013
101.3 kPa, x1 = 0.0177 | 1.058 ± 0.023 | 0.9465 ± 0.02 | 0.853 ± 0.018 | 0.7732 ± 0.016 | – | 0.6476 ± 0.014
101.3 kPa, x1 = 0.03478 | 1.15 ± 0.025 | 1.032 ± 0.022 | 0.9323 ± 0.02 | 0.8482 ± 0.018 | – | 0.7131 ± 0.015
101.3 kPa, x1 = 0.05127 | 1.275 ± 0.027 | 1.144 ± 0.024 | 1.034 ± 0.022 | 0.9397 ± 0.02 | – | 0.7913 ± 0.017
101.3 kPa, x1 = 0.06722 | 1.418 ± 0.03 | 1.271 ± 0.027 | 1.148 ± 0.024 | 1.043 ± 0.022 | – | 0.8782 ± 0.019
101.3 kPa, x1 = 0.09755 | 1.796 ± 0.038 | 1.604 ± 0.034 | 1.444 ± 0.031 | 1.309 ± 0.028 | – | 1.097 ± 0.023
101.3 kPa, x1 = 0.126 | 2.231 ± 0.048 | 1.983 ± 0.042 | 1.778 ± 0.038 | 1.606 ± 0.034 | – | 1.338 ± 0.028
101.33 kPa, x1 = 0.000905 | – | – | – | 0.7324 ± 0.014 | 0.6609 ± 0.013 | –
101.33 kPa, x1 = 0.002718 | – | – | – | 0.7422 ± 0.014 | 0.6695 ± 0.013 | –
101.33 kPa, x1 = 0.00453 | – | – | – | 0.7525 ± 0.014 | 0.6763 ± 0.013 | –
101.33 kPa, x1 = 0.006344 | – | – | – | 0.7606 ± 0.014 | 0.6855 ± 0.013 | –
101.33 kPa, x1 = 0.008159 | – | – | – | 0.7705 ± 0.015 | 0.6992 ± 0.013 | –
101.33 kPa, x2 = 0.84 | 3.04 ± 0.13 | – | – | – | – | –
101.33 kPa, x2 = 0.86 | 2.507 ± 0.11 | – | – | – | – | –
101.33 kPa, x2 = 0.88 | 2.15 ± 0.088 | – | – | – | – | –
101.33 kPa, x2 = 0.89 | 2.088 ± 0.091 | – | – | – | – | –
101.33 kPa, x2 = 0.91 | 1.752 ± 0.072 | – | – | – | – | –
101.33 kPa, x2 = 0.92 | 1.502 ± 0.062 | – | – | – | – | –
101.33 kPa, x2 = 0.94 | 1.384 ± 0.056 | – | – | – | – | –
